In patent US9255295B2, “Method for evaluating the sensitizing potential of a test compound” (IMMUNOSEARCH, priority 2010, dated 2016):
Several values for one entry are separate records, joined by “and”; a condition that tells them apart may be missing. Identical values can stand only once. Like-named read-outs stand apart in the source and are kept apart here.

Tests used:
[1] = tested on: genes specific for sensitization (BRAK, CTSS, DAPK2, FABP4, HSP27, IL18, HSP90, IL1R2, TPSAB1, CXCR1, DEFB1, DHFR, EHF, IVL, KRT4, MELANA, NGAL, PDZK1IP1, PI3 …); experiment: Expression of the other (non-ARE) sensitization-specific genes in EPISKIN reconstructed skin (quantitative RT-PCR); assay type: cell-based, human
[2] = tested on: ARE gene family (AKR1B10, AKR1C1, AKR1C2, CYP1B1, FTH1P, FTL, G6PD, GCLM, NQO2, SLC7A11, TXNRD1, UGT1A1, UGT1A9, YWHAZ, CD36, CYP1A1, GCLC, HMOX1, NQO1, PSME2 …)

Nc1ccccc1O [2-aminophenol]
BRAK grade (NUMBER OF GENES) [1]: 0 (key: If the expression is greater than 1.3 compared to the control, a grade of 11s given; if this expression is lower, the grade is 0) | CTSS expression compared to control [1]: 1.3 and 1.2 and 1.4 | DAPK2 expression compared to control [1]: 1.0 and 0.9 | DAPK2 grade (NUMBER OF GENES) [1]: 0 (key: If the expression is greater than 1.3 compared to the control, a grade of 11s given; if this expression is lower, the grade is 0) | DEFB1 expression compared to control [1]: 1.9 and 1.8 and 1.4 and 1.1 | DHFR expression compared to control [1]: 0.9 and 1.2 | DHFR grade (NUMBER OF GENES) [1]: 0 (key: If the expression is greater than 1.3 compared to the control, a grade of 11s given; if this expression is lower, the grade is 0) | EHF expression compared to control [1]: 1.7 and 1.5 and 1.4 and 1.2 | FABP4 expression compared to control [1]: 1.1 and 0.7 and 0.9 | FABP4 grade (NUMBER OF GENES) [1]: 0 (key: If the expression is greater than 1.3 compared to the control, a grade of 11s given; if this expression is lower, the grade is 0) | HSP27 expression compared to control [1]: 1.0 and 1.1 and 0.8 | HSP27 grade (NUMBER OF GENES) [1]: 0 (key: If the expression is greater than 1.3 compared to the control, a grade of 11s given; if this expression is lower, the grade is 0) | HSP90 expression compared to control [1]: 1.5 and 1.2 and 1.0 | IL18 expression compared to control [1]: 0.9 and 0.8 and 1.1 | IL18 grade (NUMBER OF GENES) [1]: 0 (key: If the expression is greater than 1.3 compared to the control, a grade of 11s given; if this expression is lower, the grade is 0) | IVL expression compared to control [1]: 1.8 and 1.3 and 0.9 | KRT4 expression compared to control [1]: 1.7 and 1.1 | MELANA grade (NUMBER OF GENES) [1]: 0 (key: If the expression is greater than 1.3 compared to the control, a grade of 11s given; if this expression is lower, the grade is 0) | NGAL expression compared to control [1]: 1.8 and 1.9 and 1.5 and 1.1 | P13 expression compared to control [1]: 1.5 and 1.4 and 1.2 and 1.3 | PDZK1iP1 expression compared to control [1]: 1.0 | PDZK1iP1 grade (NUMBER OF GENES) [1]: 0 (key: If the expression is greater than 1.3 compared to the control, a grade of 11s given; if this expression is lower, the grade is 0) | SERPINB3 expression compared to control [1]: 1.4 and 1.2 and 1.3 | AHR expression compared to control ([2]; 0.1%): 1.0 | AHR grade (NUMBER OF GENES) ([2]; 0.1%): 0 (if this expression is lower, the grade is 0) | AKR1B10 expression compared to control ([2]; 0.1%): 0.8 | AKR1B10 grade (NUMBER OF GENES) ([2]; 0.1%): 0 (if this expression is lower, the grade is 0) | AKR1C1 expression compared to control ([2]; 0.1%): 1.2 | AKR1C1 grade (NUMBER OF GENES) ([2]; 0.1%): 0 (if this expression is lower, the grade is 0) | AKR1C2 expression compared to control ([2]; 0.1%): 1.1 | AKR1C2 grade (NUMBER OF GENES) ([2]; 0.1%): 0 (if this expression is lower, the grade is 0) | ARE >1.3 (NUMBER OF GENES) ([2]; 0.1%): 5 | CD36 expression compared to control ([2]; 0.1%): 0.9 | CD36 grade (NUMBER OF GENES) ([2]; 0.1%): 0 (if this expression is lower, the grade is 0) | CYP1A1 expression compared to control ([2]; 0.1%): 7.1 | CYP1A1 grade (NUMBER OF GENES) ([2]; 0.1%): 1 (If the expression is greater than 1.3 compared to the control, a grade of 11s given) | CYP1B1 expression compared to control ([2]; 0.1%): 5.3 | CYP1B1 grade (NUMBER OF GENES) ([2]; 0.1%): 1 (If the expression is greater than 1.3 compared to the control, a grade of 11s given) | FTH1P expression compared to control ([2]; 0.1%): 0.9 | FTH1P grade (NUMBER OF GENES) ([2]; 0.1%): 0 (if this expression is lower, the grade is 0) | FTL expression compared to control ([2]; 0.1%): 1.0 | FTL grade (NUMBER OF GENES) ([2]; 0.1%): 0 (if this expression is lower, the grade is 0) | GCLC expression compared to control ([2]; 0.1%): 1.1 | GCLC grade (NUMBER OF GENES) ([2]; 0.1%): 0 (if this expression is lower, the grade is 0) | GCLM expression compared to control ([2]; 0.1%): 2.1 | GCLM grade (NUMBER OF GENES) ([2]; 0.1%): 1 (If the expression is greater than 1.3 compared to the control, a grade of 11s given) | HMOX1 expression compared to control ([2]; 0.1%): 1.1 | HMOX1 grade (NUMBER OF GENES) ([2]; 0.1%): 0 (if this expression is lower, the grade is 0) | NQO1 expression compared to control ([2]; 0.1%): 0.9 | NQO1 grade (NUMBER OF GENES) ([2]; 0.1%): 0 (if this expression is lower, the grade is 0) | NQO2 expression compared to control ([2]; 0.1%): 1.0 | NQO2 grade (NUMBER OF GENES) ([2]; 0.1%): 0 (if this expression is lower, the grade is 0) | S100A8 expression compared to control ([2]; 0.1%): 1.4 | S100A8 grade (NUMBER OF GENES) ([2]; 0.1%): 1 (If the expression is greater than 1.3 compared to the control, a grade of 11s given) | SLC7A11 expression compared to control ([2]; 0.1%): 2.1 | SLC7A11 grade (NUMBER OF GENES) ([2]; 0.1%): 1 (If the expression is greater than 1.3 compared to the control, a grade of 11s given) | TOTAL ARE (NUMBER OF GENES) ([2]; 0.1%): 5 | TXNRD1 expression compared to control ([2]; 0.1%): 3.0 | TXNRD1 grade (NUMBER OF GENES) ([2]; 0.1%): 1 (If the expression is greater than 1.3 compared to the control, a grade of 11s given) | UGT1A1 expression compared to control ([2]; 0.1%): 0.9 | UGT1A1 grade (NUMBER OF GENES) ([2]; 0.1%): 0 (if this expression is lower, the grade is 0) | UGT1A9 expression compared to control ([2]; 0.1%): 1.1 | UGT1A9 grade (NUMBER OF GENES) ([2]; 0.1%): 0 (if this expression is lower, the grade is 0) | AHR expression compared to control ([2]; 1%): 0.6 | AHR grade (NUMBER OF GENES) ([2]; 1%): 0 (if this expression is lower, the grade is 0) | AKR1B10 expression compared to control ([2]; 1%): 0.9 | AKR1B10 grade (NUMBER OF GENES) ([2]; 1%): 0 (if this expression is lower, the grade is 0) | AKR1C1 expression compared to control ([2]; 1%): 4.3 | AKR1C1 grade (NUMBER OF GENES) ([2]; 1%): 1 (If the expression is greater than 1.3 compared to the control, a grade of 11s given) | AKR1C2 expression compared to control ([2]; 1%): 1.2 | AKR1C2 grade (NUMBER OF GENES) ([2]; 1%): 0 (if this expression is lower, the grade is 0) | ARE >1.3 (NUMBER OF GENES) ([2]; 1%): 10 | CD36 expression compared to control ([2]; 1%): 0.6 | CD36 grade (NUMBER OF GENES) ([2]; 1%): 0 (if this expression is lower, the grade is 0) | CYP1A1 expression compared to control ([2]; 1%): 14.6 | CYP1A1 grade (NUMBER OF GENES) ([2]; 1%): 1 (If the expression is greater than 1.3 compared to the control, a grade of 11s given) | CYP1B1 expression compared to control ([2]; 1%): 15.6 | CYP1B1 grade (NUMBER OF GENES) ([2]; 1%): 1 (If the expression is greater than 1.3 compared to the control, a grade of 11s given) | FTH1P expression compared to control ([2]; 1%): 1.2 | FTH1P grade (NUMBER OF GENES) ([2]; 1%): 0 (if this expression is lower, the grade is 0) | FTL expression compared to control ([2]; 1%): 2.1 | FTL grade (NUMBER OF GENES) ([2]; 1%): 1 (If the expression is greater than 1.3 compared to the control, a grade of 11s given) | GCLC expression compared to control ([2]; 1%): 2.2 | GCLC grade (NUMBER OF GENES) ([2]; 1%): 1 (If the expression is greater than 1.3 compared to the control, a grade of 11s given) | GCLM expression compared to control ([2]; 1%): 3.5 | GCLM grade (NUMBER OF GENES) ([2]; 1%): 1 (If the expression is greater than 1.3 compared to the control, a grade of 11s given) | HMOX1 expression compared to control ([2]; 1%): 1.4 | HMOX1 grade (NUMBER OF GENES) ([2]; 1%): 1 (If the expression is greater than 1.3 compared to the control, a grade of 11s given) | NQO1 expression compared to control ([2]; 1%): 1.1 | NQO1 grade (NUMBER OF GENES) ([2]; 1%): 0 (if this expression is lower, the grade is 0) | NQO2 expression compared to control ([2]; 1%): 1.1 | NQO2 grade (NUMBER OF GENES) ([2]; 1%): 0 (if this expression is lower, the grade is 0)
